According to patent US5733934A, “Antiarrythmic and cardioprotective substituted indenoylguanidines” (priority 1996, dated 1998):

Columns and labels:
isolated rat heart = assay: Reperfusion Induced Arrhythmias in the isolated rat heart; design: species or system rat (Charles Foster); conditions: LAD ligation 15 min, reperfusion 30 min, read-out: IC50 for VFD (50% reduction of duration of ventricular fibrillation)
Protocol: Reperfusion Induced Arrhythmias in the isolated rat heart:
[…] Charles Foster rats of either sex (250-300 g) were sacrificed by stunning and exsanguination. Hearts were quickly removed and perfused according to Langendorffs method. Different concentrations of test compound were added into the perfusing medium. After 20 min of the equilibration period Left Anterior Descending (LAD) coronary artery was ligated. 15 minutes later the ligature was removed and reperfusion was allowed for next 30 minutes. During reperfusion period ECG was monitored. Duration of Ventricular Fibrillation (VFD) was the main parameter of assessment. Anti-arrhythmic activity was examined as the concentration of the test compound required to cause a 50% reduction of the VFD.

Na^+ /H^+ -exchanger = biological target: T1, Na^+ /H^+ -exchanger (Oryctolagus cuniculus, UniProt P23791); assay: Sodium-Proton exchange inhibition in rabbit erythrocytes; assay type: cell-based, rabbit (Albino, New Zealand strain); conditions: 37° C., 1 hour, hyperosmolar sucrose buffer, 0.1 mM Ouabain, read-out: IC50 (concentration necessary to reduce the erythrocyte sodium content to 50%)
T1 construct: Na^+ /H^+ -exchanger activity in the erythrocytes; endogenous in cells; host or cells: erythrocytes (whole blood from the ear vein) of cholesterol-fed New Zealand albino rabbits
T1 sequence (P23791 whole entry): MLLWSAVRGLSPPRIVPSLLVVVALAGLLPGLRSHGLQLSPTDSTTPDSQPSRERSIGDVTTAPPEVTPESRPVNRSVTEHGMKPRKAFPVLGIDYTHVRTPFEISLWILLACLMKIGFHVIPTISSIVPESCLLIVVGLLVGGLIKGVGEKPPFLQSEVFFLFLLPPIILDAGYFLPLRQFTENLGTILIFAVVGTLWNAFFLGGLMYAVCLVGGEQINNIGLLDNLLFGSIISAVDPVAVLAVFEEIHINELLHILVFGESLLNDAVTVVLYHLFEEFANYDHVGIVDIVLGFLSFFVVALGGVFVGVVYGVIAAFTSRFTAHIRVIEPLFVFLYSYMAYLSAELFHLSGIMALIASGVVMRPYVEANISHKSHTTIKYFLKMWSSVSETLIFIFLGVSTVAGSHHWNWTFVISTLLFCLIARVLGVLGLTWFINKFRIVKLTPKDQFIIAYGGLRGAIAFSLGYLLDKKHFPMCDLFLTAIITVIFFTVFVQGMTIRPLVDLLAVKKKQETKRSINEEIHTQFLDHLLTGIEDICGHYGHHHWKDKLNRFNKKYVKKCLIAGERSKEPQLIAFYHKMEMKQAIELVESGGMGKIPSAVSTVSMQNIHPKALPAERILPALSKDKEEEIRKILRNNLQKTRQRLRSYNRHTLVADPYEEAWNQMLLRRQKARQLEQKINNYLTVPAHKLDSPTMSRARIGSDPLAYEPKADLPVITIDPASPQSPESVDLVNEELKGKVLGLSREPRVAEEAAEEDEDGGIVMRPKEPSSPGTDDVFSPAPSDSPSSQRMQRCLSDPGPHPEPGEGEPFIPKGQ
From the text: Sodium-Proton exchange inhibition in rabbit erythrocytes:
Albino rabbits of New Zealand strain were fed with 2% cholesterol diet for six weeks prior to collecting blood for the determination of Na^+ /H^+ -exchanger activity in the erythrocytes. Eypercholesteremia has been reported to increase the exchanger activity in the rabbit erythrocytes (Scholz et al, 1990; Arteriosklerose--Neue Aspekte aus Zellbiologie und Molekulargenetik, Epidemiologie und Klinik; Assmann, G, et al, Eds, Braunschweig, Wiesbaden, Vieweg, 296-302). Blood samples were collected from the ear vein and hematocrit was determined. About 200 μl of blood was incubated at 37° C. for 1 hour with hyperosmolar sucrose buffer containing 0.1 mM Ouabain in the presence and absence of test sample. After the incubation period, the reaction was stopped by addition of 5 ml of ice cold MgCl2 solution containing 0.1 mM Ouabain. The erythrocytes were washed three times with 5 ml quantities of MgCl2 solution. They were hemolyzed by the addition of 4 ml of distilled water and the sodium content of the hemolyzed was determined by flame-photometry. The activity of the test compound was determined by its ability to reduce the sodium content of the erythrocyte and was expressed as IC50 which is the concentration necessary to reduce the erythrocyte sodium content to 50%.

anaesthetized rats = assay: Ischemia-Induced Arrhythmias in Anaesthetized Rats; assay type: in vivo, rat (Male Charles Foster); design: key to VF Percent inhibition: NP: No protection
Protocol: Ischemia-Induced Arrhythmias in Anaesthetized Rats:
Male Charles Foster rats (220-260 g) were anaesthetized with Pentobarbitone sodium. Animals were artificially ventilated. Blood pressure was recorded through carotid artery. Thoracotomy was performed to expose the heart. Left Anterior Descending (LAD) coronary artery was identified. Test compound was administered either orally […] before anaesthesia (40 minutes before LAD artery ligation) or intravenously (5 minutes before LAD artery ligation). Resulting arrhythmias during the 15 minute period of ligation were recorded and analyzed according to Lambeth Convention (Walker M. J. A, et al, 1988, Cardiovascular Research, 22, 447-455). Antiarrhythmic effect of the test compound was expressed as dose dependent inhibition of the duration of Ventricular Tachycardia (VT) and Ventricular Fibrillation (VF).

anaesthetized rat = assay: Myocardial Infarction in the Anaesthetized Rat; assay type: in vivo; conditions: intravenous 5 minutes before ligation; 1 h ligation, 1 h reperfusion
Protocol: Myocardial Infarction in the Anaesthetized Rat:
Rats were prepared as in earlier experiments. Compounds were administered intravenously 5 minutes before ligation. The experiment consisted of one hour of ligation followed by one hour of reperfusion. Myocardial infarction was assessed by double dye technique using Evans blue and 2,3,5-Triphenyltetrazolium to identify area at risk and area of infarction respectively. Extent of infarction was expressed as a percent of area at risk. (Simpson et al, 1987, Circulation Research, 60, 666-673)

rat hearts = conditions: isolated rat hearts; Eur. Heart J. 9 {supplement 1}: 167 (1988); cited from earlier work
[1] = test system: disturbances in cardiac rhythm; conditions: Circulation 79, 1257-1263 (1989); cited from earlier work

| IC50 (Na^+ /H^+ -exchanger) | SMILES | IC50 (isolated rat heart) | VF Percent inhibition (anaesthetized rats; Intravenous, 0.1 mg/kg) | VT Percent inhibition (anaesthetized rats; Intravenous, 0.1 mg/kg) | VF Percent inhibition (anaesthetized rats; Intravenous, 0.3 mg/kg) | VT Percent inhibition (anaesthetized rats; Intravenous, 0.3 mg/kg) | VF Percent inhibition (anaesthetized rats; Intravenous, 1.0 mg/kg) | VT Percent inhibition (anaesthetized rats; Intravenous, 1.0 mg/kg) | VF Percent inhibition (anaesthetized rats; Oral, 1 mg/kg) | VT Percent inhibition (anaesthetized rats; Oral, 1 mg/kg) | Protection against infarction (anaesthetized rat) | suppression of artificially induced ventricular fibrillation (rat hearts) | also measured |
| --- | --- | --- | --- | --- | --- | --- | --- | --- | --- | --- | --- | --- | --- |
| 90 nM | CC1=C(C(=O)N=C(N)N)Cc2ccccc21 [Compound 2] | 25 nM | 100% | 57 ± 17% | 100% | 90 ± 3% | 100% | 98 ± 1% | 68% | 26 ± 0% | 17% | – | VF Percent inhibition (anaesthetized rats; Oral, 3 mg/kg): 93%; VT Percent inhibition (anaesthetized rats; Oral, 3 mg/kg): 31 ± 21%; VF Percent inhibition (anaesthetized rats; Oral, 10 mg/kg): 00%; VT Percent inhibition (anaesthetized rats; Oral, 10 mg/kg): 73 ± 8% |
| 18 nM | CC1=C(C(=O)N=C(N)N)Cc2c(Cl)cccc21 [Compound 10] | 17 nM | 100% | 20 ± 24% | 100% | 81 ± 8% | 100% | 97 ± 1% | 100% | 67 ± 11% | 68% | – | VF Percent inhibition (anaesthetized rats; Oral, 0.1 mg/kg): NP; VT Percent inhibition (anaesthetized rats; Oral, 0.1 mg/kg): 32 ± 12%; VF Percent inhibition (anaesthetized rats; Oral, 0.3 mg/kg): 84%; VT Percent inhibition (anaesthetized rats; Oral, 0.3 mg/kg): 69 ± 11% |
| – | N=C(N)NC(=O)c1nc(Cl)c(N)nc1N [amiloride] | – | – | – | – | – | – | – | – | – | – | suppress an artificially induced ventricular fibrillation completely | antiarrhythmic effect [1]: only slight |
| – | CCN(c1nc(N)c(C(=O)N=C(N)N)nc1Cl)C(C)C [ethylisopropylamiloride] | – | – | – | – | – | – | – | – | – | – | even more potent than amiloride | – |
